In patent publication US7968526B2, “Antisense oligonucleotides directed to ribonucleotide reductase R2 and uses thereof in the treatment of cancer” (Lorus Therapeutics Inc., priority 2003, dated 2011):
“Also recorded” adds a separate entry of the source.

Columns and labels:
[1] = test system: Hela S3 human cervix epitheloid carcinoma cells; experiment: Hela S3 hydroxyurea resistant cervix carcinoma xenograft in SCID mice; format: in vivo, human cells in mice
Method: BxPC-3 is a gemcitabine resistant call line. […] Gemcitabine was administered intravenously every three days at a dose of 100 mg/kg. Antitumour activities were estimated by the inhibition of tumour volume, which was measured with caliper. Each point represents mean tumour volume calculated from 10 animals per experimental group. […] Hela S3 is a hydroxyurea resistant cell line. […] Hydroxyurea was administered intraperitoneally every day at a dose of 250 mg/kg for 10 days. Cisplatin was administered intravenously once a week for three weeks at a dose of 4 mg/kg. Antitumour activities were estimated by the inhibition of tumour volume, which was measured with caliper. Each point represents mean tumour volume calculated from 10 animals per experimental group. […] Cisplatin was administered intravenously once a week for three weeks at a dose of 4 mg/kg. Taxol was administered intravenously once a week for three weeks at a dose of 10 mg/kg. Antitumour activities were estimated by the inhibition of tumour volume, which was measured with caliper. Each point represents mean tumour volume calculated from 10 animals per experimental group. […] Taxol was administered i.p. once a week at a dose of 10 mg/kg. Antitumour activities were estimated by the inhibition of tumour volume (FIG. 12A), which was measured with calipers. Each point represents mean tumour volume calculated from 10 animals per experimental group. Animals were sacrificed and tumour weights taken at the end of the study (FIG. 12C). […] The effects of combined treatment were greater than either treatment alone. […] Cisplatin was administered intravenously once a week for four weeks at a dose of 4 mg/kg. Taxol was administered intravenously once a week for four weeks at a dose of 20 mg/kg. Antitumour activities were estimated by the inhibition of tumour volume, which was measured with caliper. Each point represents mean tumour volume calculated from 9-10 animals per experimental group. […] Cisplatin was administered intravenously once a week for four weeks at a dose of 4 mg/kg. Antitumour activities were estimated by the inhibition of tumour volume, which was measured with caliper. Each point represents mean tumour volume calculated from 10 animals per experimental group. At the end of the study the animals were sacrificed and tumours weighed. […] Taxol was administered i.p. once a week at a dose of 10 mg/kg. Anti-tumour activity was estimated by the inhibition of tumour volume, which was measured with caliper. Each point represents mean tumour volume calculated from 10 animals per experimental group. In addition animals were sacrificed and tumour weights taken at the end of the study. […] CPT-11 was administered i.p. for 5 days at a dose of 20 mg/kg/day. Antitumour activities were estimated by the inhibition of tumour volume, which was measured with caliper. Each point represents mean tumour volume calculated from 10 animals per experimental group. Tumour weights were measured after animals were sacrificed at the end of the treatment. These cells are not resistant to CPT-11 which was used as a positive control.

[2] = test system: HeLa S3 human cervical cancer cells; experiment: HeLa S3 cervical tumour growth in SCID mice (3.11); format: in vivo, human cells in mice
Method: Treatments lasted for 14 days thereafter. Antitumour activities were estimated by the inhibition of tumour volume, which was measured with a caliper on four different occasions over the treatment period. Each point represents mean tumour volume calculated from 5 animals per experimental group. […] Control animals (control) received saline alone for the same period. At the end of the treatments, the animals were sacrificed, tumours were excised and their weights were measured. Each bar represents mean tumour weight calculated from 6 animals per experimental group. […] Treatments lasted for 24 days thereafter. Antitumour activities were estimated by the inhibition of tumour volume, which was measured with a caliper at two-day intervals over the treatment period. Each point represents mean tumour volume calculated from 4 animals per experimental group. […] Treatments lasted for 24 days thereafter. Antitumour activities were estimated by the inhibition of tumour volume, which was measured with a caliper at two-day intervals over the treatment period. Each point represents mean tumour volume calculated from 4 animals per experimental group. […] Each point represents mean tumour volume calculated from 5 animals per experimental group. […] Antitumour activities were estimated by the inhibition of tumour volume, which was measured with a caliper on four different occasions over 16-day period. Each point represents mean tumour volume calculated from 5 animals per experimental group. […] Antitumour activities were estimated by the inhibition of tumour volume, which was measured with a caliper at two-day intervals over the treatment period. Each point represents mean tumour volume calculated from 5 animals per experimental group. […] Antitumour activities were estimated by the inhibition of tumour volume, which was measured with a caliper at various time intervals over the span of 30 days. Each point represents mean tumour volume calculated from 6 animals per experimental group. […] Antitumour activities were estimated by the inhibition of tumour volume, which was measured with a caliper. […]

[3] = 21-day intravenous toxicity study in the rat with a 21-day recovery; format: in vivo, Sprague-Dawley rats
Method: SEQ ID NO:1 was administered to Sprague-Dawley rats via intravenous bolus injection every second day up to 21 days, with a 21-day recovery period. The study design included 4 treatment groups; vehicle controls, 2 mg/kg, 10 mg/kg, and 50 mg/kg. The main study group consisted of 10 animals/sex, and an additional 5 animals/sex were included in the control and high-dose groups for a recovery phase. Satellite animals (6/sex/group) were also included for toxicokinetic analysis.

[4] = test system: CB7 Friend retrovirus-induced mouse Erythroleukaemia cells; experiment: Survival of SCID mice bearing mouse erythroleukaemia (CB7); format: in vivo; settings: 10 mg/kg i.v. every second day, stopped at day 71, untreated all died within 36 days
[5] = Human Cervical Carcinoma^2 in SCID mice, Day 17 after tumour implantation
[6] = 50 mg/kg i.v. bolus every second day up to 21 days

In the case of “5′-GGCTAAATCGCTCCACCAAG-3′ (all phosphorothioate, sugars by position and methylation of C not given here) [SEQ ID NO: 1, fully phosphorothioated antisense oligonucleotide that hybridizes to the coding region of R2 mRNA]”, the “Tumour weight as % of saline control” value ([1]; Hela S3 (cervix), hydroxyurea resistant, SCID, SEQ ID NO:1 10 mg/kg i.v. every other day 6 times, Hydroxyurea 250 mg/kg i.p. daily 10 days, Cisplatin 4 mg/kg i.v. weekly x3) is reported as 24%, the “Antitumour effect (tumour volume, FIG. 10)” value ([1]; Hela S3 hydroxyurea resistant, SCID mice, SEQ ID NO:1 10 mg/kg i.v. every other day, Hydroxyurea 250 mg/kg i.p. daily, Cisplatin 4 mg/kg i.v. weekly) is reported as “significant delay of tumour growth compared to saline control; also recorded: superior to the inhibitory effects observed with Cisplatin alone” and the “Inhibitory effect on tumour growth (tumour volume and weight, FIG. 23)” value ([2]; HeLa S3, SCID mice, 10 mg/kg i.v. every other day, 14 days) is reported as “strong inhibitory effects on the growth of human cervical carcinoma”. For the same substance, the “Inhibition of tumour size” value [2, 5] was “approximately 60% in SCID mice on Day 17fter”, the “Inhibition of tumour weight” value [2, 5] was “approximately 60% in SCID mice on Day 17fter” and the Toxicity findings ([3]; 2 mg/kg i.v. bolus every second day up to 21 days) was “no remarkable effects on any of the above parameters”. For the same substance, the Toxicity findings ([3]; 10 mg/kg i.v. bolus every second day up to 21 days) was “no clinical signs, no effects on body weight or food consumption, a lesser degree of anemia and thrombocytopenia, and only minor changes in a few serum chemistry parameters”, the Mortality [3, 6] was “A single mortality” and the Toxicity findings [3, 6] was “various adverse clinical signs, a decrement in body weight gain (associated with diminished food consumption), lymphocytosis, moderate anemia and thrombocytopenia, and various relatively mild changes in serum chemistry parameters”. The “Target organs (histopathology)” value ([3]; 10 and 50 mg/kg) was “lymphoid system, kidneys, and liver”, the “no-adverse-effect-level (NOAEL)” value ([3]; 21-day study) was 2 mg/kg/day and the Survival of mice [4] was “survived beyond day 71 except one mouse, which died at day 22”.
